The values that follow come from patent US9556202B2, “Sulfonamide derivatives and methods of use thereof for improving the pharmacokinetics of a drug” (MERCK SHARP & DOHME CORP., priority 2012, dated 2017).

For one assay, the target named is T1, CYP2C19 (Homo sapiens, UniProt P33261).
T1 construct: 0.1 mg/mL protein human liver microsomes (BD Gentest); tissue BD Gentest; host or cells: human liver microsomes
The experiment in a line: Cocktail CYP inhibition assay in human liver microsomes, mephenytoin 4'-hydroxylation. The settings on record: human liver microsomes 0.1 mg/mL, 30 μM mephenytoin, 10 min 37° C.; unit inferred. It counts as in vitro ADME. As to the method: (§1) Determination of IC50 in a Cocktail Assay for CYPs 1A2, 2C9, 2C19, 2D6 and 3A4
(§2) This assay was performed in a standard 96-well plate design. IC50 values were calculated from the percent inhibition observed for each test compound at 6 concentrations (for example, 0.0032, 0.016, 0.08, 0.4, 2 and 10 μM). The incubation substrate mix contains 10 μM phenacetin (1A2), 5 μM diclofenac (2C9), 30 μM mephenytoin (2C19), 5 μM dextromethorphan (2D6) and 2 μM midazolam (3A4), 0.1 mg/mL protein human liver microsomes (BD Gentest), 1 mM NAPDH, 3.3 mM MgCl2 and 100 mM potassium phosphate buffer (pH 7.4). The production of the metabolite of each probe substrate was determined after incubation for 10 min at 37° C. Quantitation of the metabolite peak area ratio against an internal standard (tolbutamide) was determined by LC/MS/MS analysis following acetonitrile treatment of the incubations.
(§3) Samples were analyzed in the MRM mode with a SCIEX API-4000 mass spectrometer (Applied Biosystems, Foster City, Calif.), with a Shimadzu LC-20 AD pump (Shimadzu corporation, Kyoto, JP) and a CTC PAL autosampler (Agilent Technologies, Switzerland). A Phenomenex, Luna, 5 μm, 100 A, 2.00×30 mm HPLC column was used for the separation. The mobile phases were: (A) 0.1% formic acid in water and (B) 0.1% formic acid in acetonitrile. The binary gradient was as follows.
(§4) The peak area ratio of the analyte to the internal standard was used to quantify the metabolite. The values of peak area ratios in the presence of test compound were compared to those of maximum or minimum controls and were expressed as % inhibition by interpolating between the maximum and minimum peak area ratios. Incubations with no inhibitor were defined as the maxima.
(§5) The following equation was used to calculate the % inhibition: [1−[(X−Low control)/(High control−Low control)]]*100
(§6) For the IC50 calculation, SigmaPlot was used to plot the mean % inhibition versus the test compound concentrations and for non-linear regression analysis of the data. […]
Background: Liver microsomes are a subcellular fraction often used to study metabolism.

A further assay concerns the target T2, CYP2C9 (Homo sapiens, UniProt P11712).
T2 construct: 0.1 mg/mL protein human liver microsomes (BD Gentest); tissue BD Gentest; host or cells: human liver microsomes
The assay is described as follows: Cocktail CYP inhibition assay in human liver microsomes, diclofenac 4'-hydroxylation. It counts as in vitro ADME. The settings on record: human liver microsomes 0.1 mg/mL, 5 μM diclofenac, 10 min 37° C.; unit inferred. As to the method: as §1, §2, §3, §4, §5, §6

The next assay concerns the target T3, CYP2D6 (Homo sapiens, UniProt P10635).
T3 construct: 0.1 mg/mL protein human liver microsomes (BD Gentest); tissue BD Gentest; host or cells: human liver microsomes
The experiment in a line: Cocktail CYP inhibition assay in human liver microsomes, dextromethorphan O-demethylation. It counts as in vitro ADME. To be noted: human liver microsomes 0.1 mg/mL, 5 μM dextromethorphan, 10 min 37° C.; unit inferred. As for the experimental part: as §1, §2, §3, §4, §5, §6

A further assay has as its target T4, CYP3A4 (Homo sapiens, UniProt P08684).
T4 construct: 0.01 mg/mL protein human liver microsomes (BD Gentest); tissue BD Gentest; host or cells: human liver microsomes
The experiment in a line: IC50 vs CYP3A by inhibition of lopinavir metabolism in human liver microsomes. It counts as biochemical. The settings on record: human liver microsomes 0.01 mg/mL, 1.5 μM lopinavir, 8 min 37° C.; test conc. e.g. 0.098-100 nM; unit inferred; read-out: 3A4(LPV). As to the method:
Determination of IC50 Vs CYP3A by Measurement of Inhibition of Lopinavir Metabolism
This assay was performed in a standard 96-well plate design. IC50 values were calculated from the percent inhibition observed for each test compound at 6 concentrations (for example, 0.098, 0.391, 1.56, 6.25, 25 and 100 nM). The incubation substrate mix contains 1.5 μM lopinavir, 0.01 mg/mL protein human liver microsomes (BD Gentest), 1 mM NAPDH, 3.3 mM MgCl2 and 100 mM potassium phosphate buffer (pH 7.4). The production of the sum of three hydroxylated metabolites (M2: 6-hydroxy lopinavir, M3: 4-hydroxy lopinavir, M4: 4-hydroxy lopinavir (epimer of M3), Kumar et al., 1999) was determined after incubation for 8 min at 37° C. Quantitation of the metabolite peak area ratio against an internal standard (tolbutamide) was determined by LC/MS/MS analysis following acetonitrile treatment of the incubations.
as §3
The peak area ratio of the analyte to the internal standard was used to quantify the metabolite. The values of peak area ratios in the presence of test compound were compared to those of maximum or minimum controls and were expressed as % inhibition by interpolating between the maximum and minimum peak area ratios. Incubations with no inhibitor were defined as the maxima and with 5 μM ketoconazole were defined as the minima.
as §5
For the IC50 calculation, SigmaPlot was used to plot the mean % inhibition versus the test compound concentrations and for non-linear regression analysis of the data. Depending on the range of data points defining the inhibition curve, the data may have been fit to the 4-parameter logistic equation.

Another assay has as its target T5, CYP1A2 (Homo sapiens, UniProt P05177).
T5 construct: 0.1 mg/mL protein human liver microsomes (BD Gentest); tissue BD Gentest; host or cells: human liver microsomes
T5 sequence (P05177 1-516): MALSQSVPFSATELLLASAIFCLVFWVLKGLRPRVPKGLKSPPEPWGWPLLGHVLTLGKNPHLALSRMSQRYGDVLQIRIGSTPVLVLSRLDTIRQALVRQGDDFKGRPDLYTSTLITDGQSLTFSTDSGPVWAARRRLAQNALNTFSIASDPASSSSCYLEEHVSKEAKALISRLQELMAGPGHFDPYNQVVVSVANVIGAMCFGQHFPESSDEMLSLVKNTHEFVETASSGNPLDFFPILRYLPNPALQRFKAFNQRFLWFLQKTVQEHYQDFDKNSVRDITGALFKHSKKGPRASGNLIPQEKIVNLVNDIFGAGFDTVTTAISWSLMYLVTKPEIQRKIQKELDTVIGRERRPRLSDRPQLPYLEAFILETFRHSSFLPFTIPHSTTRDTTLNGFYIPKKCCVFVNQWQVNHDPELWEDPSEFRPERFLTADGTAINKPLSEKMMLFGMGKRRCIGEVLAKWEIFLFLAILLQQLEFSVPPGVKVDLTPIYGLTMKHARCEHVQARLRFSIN
The assay is described as follows: Cocktail CYP inhibition assay in human liver microsomes, phenacetin O-deethylation. It counts as in vitro ADME. The settings on record: human liver microsomes 0.1 mg/mL, 10 μM phenacetin, 10 min 37° C.; test conc. up to 10 μM; unit inferred. As to the method: as §1, §2, §3, §4, §5, §6

T4 sequence (P08684 2-503): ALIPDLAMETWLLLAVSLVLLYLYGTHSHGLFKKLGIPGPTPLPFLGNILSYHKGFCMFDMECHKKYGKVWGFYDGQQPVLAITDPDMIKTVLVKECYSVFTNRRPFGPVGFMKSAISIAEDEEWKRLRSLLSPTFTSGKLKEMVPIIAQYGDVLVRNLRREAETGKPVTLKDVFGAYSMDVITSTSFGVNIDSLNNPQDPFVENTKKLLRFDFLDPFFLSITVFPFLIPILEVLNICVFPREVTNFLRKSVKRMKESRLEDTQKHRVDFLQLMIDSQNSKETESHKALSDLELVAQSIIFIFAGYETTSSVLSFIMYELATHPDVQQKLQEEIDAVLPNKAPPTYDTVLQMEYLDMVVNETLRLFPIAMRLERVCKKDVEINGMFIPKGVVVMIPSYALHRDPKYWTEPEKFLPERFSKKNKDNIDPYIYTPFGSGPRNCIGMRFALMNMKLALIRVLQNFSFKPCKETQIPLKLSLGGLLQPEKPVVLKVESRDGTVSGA
T2 sequence (P11712 whole entry): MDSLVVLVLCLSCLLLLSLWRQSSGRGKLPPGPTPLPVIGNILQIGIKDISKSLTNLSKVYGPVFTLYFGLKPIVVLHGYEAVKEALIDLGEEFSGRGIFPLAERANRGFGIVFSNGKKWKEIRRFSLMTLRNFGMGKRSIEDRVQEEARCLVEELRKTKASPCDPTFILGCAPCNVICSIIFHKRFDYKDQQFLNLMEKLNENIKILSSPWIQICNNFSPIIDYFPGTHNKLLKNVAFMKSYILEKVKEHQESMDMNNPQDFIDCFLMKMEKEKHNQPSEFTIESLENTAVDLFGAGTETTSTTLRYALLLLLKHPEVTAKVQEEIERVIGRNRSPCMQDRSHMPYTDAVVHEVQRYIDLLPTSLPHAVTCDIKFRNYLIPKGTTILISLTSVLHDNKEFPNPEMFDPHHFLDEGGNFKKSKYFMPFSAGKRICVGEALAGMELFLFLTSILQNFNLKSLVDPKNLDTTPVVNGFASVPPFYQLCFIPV
T3 sequence (P10635 whole entry): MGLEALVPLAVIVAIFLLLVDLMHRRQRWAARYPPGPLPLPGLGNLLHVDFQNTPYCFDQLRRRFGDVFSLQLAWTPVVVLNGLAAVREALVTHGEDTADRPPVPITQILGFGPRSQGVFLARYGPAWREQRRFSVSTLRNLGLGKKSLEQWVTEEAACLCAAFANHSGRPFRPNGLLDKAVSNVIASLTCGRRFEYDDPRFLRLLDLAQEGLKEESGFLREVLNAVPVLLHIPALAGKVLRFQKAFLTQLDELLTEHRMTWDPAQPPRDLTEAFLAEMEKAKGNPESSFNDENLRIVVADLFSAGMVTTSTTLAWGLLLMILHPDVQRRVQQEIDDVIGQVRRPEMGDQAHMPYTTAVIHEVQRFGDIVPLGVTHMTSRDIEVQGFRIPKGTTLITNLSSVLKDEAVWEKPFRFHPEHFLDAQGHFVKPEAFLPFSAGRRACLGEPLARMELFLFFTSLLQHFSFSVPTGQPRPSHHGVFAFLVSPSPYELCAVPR
T1 sequence (P33261 whole entry): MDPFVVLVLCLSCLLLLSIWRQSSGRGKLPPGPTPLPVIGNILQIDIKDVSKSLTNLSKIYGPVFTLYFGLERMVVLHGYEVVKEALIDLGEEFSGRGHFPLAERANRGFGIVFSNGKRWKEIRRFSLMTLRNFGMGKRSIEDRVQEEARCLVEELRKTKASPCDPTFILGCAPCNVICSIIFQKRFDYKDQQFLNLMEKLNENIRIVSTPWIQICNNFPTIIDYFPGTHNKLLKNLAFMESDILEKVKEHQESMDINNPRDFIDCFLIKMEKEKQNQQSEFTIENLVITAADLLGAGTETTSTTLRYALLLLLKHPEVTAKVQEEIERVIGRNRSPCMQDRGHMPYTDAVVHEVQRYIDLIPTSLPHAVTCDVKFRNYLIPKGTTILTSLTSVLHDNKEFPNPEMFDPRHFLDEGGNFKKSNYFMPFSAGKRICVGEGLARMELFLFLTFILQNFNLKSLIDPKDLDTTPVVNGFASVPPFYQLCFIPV

For the compound `COCC(c1cncn1[C@H](C)c1ccc(F)cc1)N1CCN(S(=O)(=O)c2cnc(N3CCN(C)CC3)s2)CC1` (single isomer, unassigned) [Compound 35], the IC50 is above 10 µM against CYP2C19; above 10 µM against CYP2C9; 8.89 µM on CYP2D6; 3.8 nM at CYP3A4; above 10 µM on CYP1A2.
With `COCCC(c1cncn1[C@H](C)c1ccc(F)cc1)N1CCN(S(=O)(=O)c2cnc(N3CCN(C)CC3)s2)CC1` (single isomer, unassigned) [Compound 36], the IC50 against CYP2C19 was above 10 µM; against CYP2C9 it was above 10 µM; on CYP2D6 it was 4.08 µM; on CYP3A4 it was 4.3 nM; on CYP1A2, above 10 µM.
For `C[C@H](c1ccc(F)cc1)n1cncc1C1CCCC2CN(S(=O)(=O)c3cnc(Nc4ccccn4)s3)CCN21` (single isomer, unassigned) [Compound 38], the IC50 is 4.18 µM against CYP2C19; 1.22 µM against CYP2C9; 7.13 µM against CYP2D6; 2.5 nM on CYP3A4; above 10 µM against CYP1A2.
